These results are taken from PubChem BioAssay AID330 (DTP/NCI, 2004).

Several values for one entry are separate records, joined by “and”; a condition that tells them apart may be missing. Identical values can stand only once. Toxic doses and inconclusive results are not listed.

The test has as its system P388 leukemia ip, CD2F1 mice, survival T/C. The test can be described thus: NCI In Vivo Anticancer Drug Screen. Data for tumor model P388 Leukemia (intraperitoneal) in CD2F1 (CDF1) mice. Conditions: endpoint: median survival time, higher = longer survival. The method in brief:
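Mice carrying the transplanted tumor received test compound or vehicle. Survival was recorded in each group, and the value is the treated-group measurement divided by that of the vehicle-treated control group.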

[1] abbreviates: dose: 25.0 mg/kg/injection, schedule: Q01DX009 (ip), vehicle: Klucel (hydroxypropylcellulose) (HPC).
Where [2] appears, read: dose: 50.0 mg/kg/injection, schedule: Q01DX009 (ip), vehicle: Klucel (hydroxypropylcellulose) (HPC).
Setting [3] is: dose: 100.0 mg/kg/injection, schedule: Q01DX009 (ip), vehicle: Klucel (hydroxypropylcellulose) (HPC).
[4] abbreviates: dose: 200.0 mg/kg/injection, schedule: Q01DX009 (ip), vehicle: Klucel (hydroxypropylcellulose) (HPC).
[5] abbreviates: dose: 60.0 mg/kg/injection, schedule: Q01DX005 (ip), vehicle: saline with Tween-80.
[6] abbreviates: dose: 120.0 mg/kg/injection, schedule: Q01DX005 (ip), vehicle: saline with Tween-80.
[7] abbreviates: dose: 240.0 mg/kg/injection, schedule: Q01DX005 (ip), vehicle: saline with Tween-80.
Setting [8] is: dose: 100.0 mg/kg/injection, schedule: Q01DX001 (ip), vehicle: Klucel (hydroxypropylcellulose) (HPC).
The mark [9] stands for this setting: dose: 50.0 mg/kg/injection, schedule: Q01DX005 (ip), vehicle: saline with Tween-80.
[10] abbreviates: dose: 100.0 mg/kg/injection, schedule: Q01DX005 (ip), vehicle: saline with Tween-80.
Where [11] appears, read: dose: 200.0 mg/kg/injection, schedule: Q01DX005 (ip), vehicle: saline with Tween-80.
Where [12] appears, read: dose: 50.0 mg/kg/injection, schedule: Q01DX005 (ip), vehicle: Klucel (hydroxypropylcellulose) (HPC).
Setting [13] is: dose: 100.0 mg/kg/injection, schedule: Q01DX005 (ip), vehicle: Klucel (hydroxypropylcellulose) (HPC).

In the case of `CSC(=S)Nc1nc2ccc(Cl)cc2s1`, the T/C (dose: 6.25 mg/kg/injection, schedule: Q01DX009 (ip), vehicle: Klucel (hydroxypropylcellulose) (HPC)) is 104 % of control; the T/C (dose: 12.5 mg/kg/injection, schedule: Q01DX009 (ip), vehicle: Klucel (hydroxypropylcellulose) (HPC)) was 111 % of control; the T/C under setting [1] is 88 % of control.
As to `Cc1ccc(S(=O)(=O)N(CCc2ccccc2)S(=O)(=O)c2ccc(C)cc2)cc1`, the T/C by setting is: under setting [2], 94 % of control; under setting [3], 100 % of control; under setting [4], 109 % of control.
For `COc1ccc(C2=C(C#N)C(=O)OCCN2C)cc1`, the T/C by setting is: under setting [5], 94 % of control; under setting [6], 100 % of control; under setting [7], 101 % of control.
Take `O=C1c2ccccc2C(=O)N1CCCN1CCOCCOCCN(CCCN2C(=O)c3ccccc3C2=O)CCOCCOCC1`: the T/C runs as follows: (dose: 25.0 mg/kg/injection, schedule: Q04DX002 (ip), vehicle: saline + Tween-80 + alcohol) 100 % of control; (dose: 50.0 mg/kg/injection, schedule: Q04DX002 (ip), vehicle: saline + Tween-80 + alcohol) 104 % of control; (dose: 100.0 mg/kg/injection, schedule: Q04DX002 (ip), vehicle: saline + Tween-80 + alcohol) 102 % of control and 95 % of control.
Consider `CCN(CC)C/C(C)=C(/c1ccccc1)c1ccccc1S(N)(=O)=O`, for which the T/C is, setting by setting: under setting [8], 116 % of control; (dose: 200.0 mg/kg/injection, schedule: Q01DX001 (ip), vehicle: Klucel (hydroxypropylcellulose) (HPC)) 111 % of control.
For `CC(=O)OC1(c2ccccc2)CCN(C)CC1C(=O)c1ccccc1` (configuration not stated), the T/C is 109 % of control (dose: 50.0 mg/kg/injection, schedule: Q01DX005 (ip), vehicle: saline) and 116 % of control (dose: 100.0 mg/kg/injection, schedule: Q01DX005 (ip), vehicle: saline).
Regarding `NC(=O)c1ccccc1OC(=O)Nc1ccc(F)cc1`, the T/C (dose: 15.0 mg/kg/injection, schedule: Q01DX005 (ip), vehicle: saline with Tween-80) is 101 % of control; the T/C (dose: 30.0 mg/kg/injection, schedule: Q01DX005 (ip), vehicle: saline with Tween-80) was 97 % of control; the T/C under setting [5] was 99 % of control and 103 % of control; the T/C under setting [6] was 99 % of control.
For `Cc1cccc(C)c1NC(=O)C1CN(c2c(C)cccc2C)C(=O)/C1=N\O` (configuration not stated), the T/C was 111 % of control under setting [9], 108 % of control under setting [10] and 103 % of control under setting [11].
For the molecule `c1ccc2sc(SNC3CCCCC3)nc2c1`, the T/C is 103 % of control under setting [1]; 94 % of control (dose: 25.0 mg/kg/injection, schedule: Q04DX002 (ip), vehicle: Klucel (hydroxypropylcellulose) (HPC)); 104 % of control under setting [2]; 95 % of control (dose: 50.0 mg/kg/injection, schedule: Q04DX002 (ip), vehicle: Klucel (hydroxypropylcellulose) (HPC)); 100 % of control under setting [3]; 94 % of control (dose: 100.0 mg/kg/injection, schedule: Q04DX002 (ip), vehicle: Klucel (hydroxypropylcellulose) (HPC)). Besides, the T/C runs as follows: (dose: 100.0 mg/kg/injection, schedule: Q04DX002 (ip), vehicle: saline) 101 % of control; under setting [4], 101 % of control; (dose: 200.0 mg/kg/injection, schedule: Q04DX002 (ip), vehicle: saline) 109 % of control; (dose: 400.0 mg/kg/injection, schedule: Q04DX002 (ip), vehicle: saline) 113 % of control.
`Nc1ccc(S(=O)(=O)NCCSSCCNS(=O)(=O)c2ccc(N)cc2)cc1`: the T/C reads like this: under setting [5], 97 % of control; under setting [6], 100 % of control; under setting [7], 105 % of control.
Consider `CC(C)NC(=O)OCc1c(COC(=O)NC(C)C)c(-c2ccc(Cl)c(Cl)c2)n2c1C[C@@H](O)C2`, for which the T/C is 120 % of control (dose: 2.5 mg/kg/injection, schedule: Q01DX005 (ip), vehicle: Klucel (hydroxypropylcellulose) (HPC)); 120 % of control (dose: 5.0 mg/kg/injection, schedule: Q01DX005 (ip), vehicle: Klucel (hydroxypropylcellulose) (HPC)); 150 % of control under setting [12]; 166 % of control under setting [13].
As to `CCc1nc(-c2ccccc2)nc2c1nc(Cc1ccccc1)n2Nc1ccccc1`, the T/C under setting [8] is 88 % of control.
For `CCOC(=O)c1ccc(NN=NCCF)cc1`, the T/C runs as follows: (dose: 6.25 mg/kg/injection, schedule: Q01DX005 (ip), vehicle: distilled water + Tween-80) 160 % of control; (dose: 12.5 mg/kg/injection, schedule: Q01DX005 (ip), vehicle: distilled water + Tween-80) 252 % of control; (dose: 25.0 mg/kg/injection, schedule: Q01DX005 (ip), vehicle: distilled water + Tween-80) 256 % of control and 275 % of control.
In the case of `COC(=O)n1nc(C)c(N(C)C)n1`, the T/C by setting is: under setting [9], 99 % of control; under setting [10], 106 % of control; under setting [11], 113 % of control.
On to `COc1cc(-n2c(C)nc3ncn(-c4ccccc4)c3c2=O)cc(OC)c1OC`, for which the T/C is, setting by setting: under setting [12], 98 % of control; under setting [13], 102 % of control; (dose: 200.0 mg/kg/injection, schedule: Q01DX005 (ip), vehicle: Klucel (hydroxypropylcellulose) (HPC)) 105 % of control.
`COc1ccc2c(c1[N+](=O)[O-])CCCCC2=O`: the T/C runs as follows: (dose: 100.0 mg/kg/injection, schedule: Q01DX009 (sc), vehicle: olive oil, sesame oil, peanut oil) 104 % of control; (dose: 200.0 mg/kg/injection, schedule: Q01DX009 (sc), vehicle: olive oil, sesame oil, peanut oil) 95 % of control; (dose: 400.0 mg/kg/injection, schedule: Q01DX009 (sc), vehicle: olive oil, sesame oil, peanut oil) 107 % of control.
Consider `CN1C(=O)C2C=CC1c1ccccc12` (configuration not stated), for which the T/C was 104 % of control (dose: 100.0 mg/kg/injection, schedule: Q04DX003 (ip), vehicle: saline); 106 % of control (dose: 200.0 mg/kg/injection, schedule: Q04DX003 (ip), vehicle: saline); 99 % of control (dose: 400.0 mg/kg/injection, schedule: Q04DX003 (ip), vehicle: saline).
For the molecule `CC1=CC(=NN=c2cc(C)n([O-])c(C)c2)C=C(C)[N+]1=O`, under “dose: 25.0 mg/kg/injection, schedule: Q01DX009 (ip), vehicle: saline”, the T/C is 118 % of control.
As to `COc1ccccc1/C(C)=N/O`, the T/C under setting [5] was 100 % of control, the T/C under setting [6] was 95 % of control and the T/C under setting [7] was 103 % of control.
Take `CCOC(=O)Nc1cc2c(c(N)n1)N=C(c1ccc(Cl)c(Cl)c1)CN2`: the T/C by setting is: (dose: 5.0 mg/kg/injection, schedule: Q01DX005 (ip), vehicle: saline with Tween-80) 121 % of control; (dose: 10.0 mg/kg/injection, schedule: Q01DX005 (ip), vehicle: saline with Tween-80) 158 % of control.
As to `Cc1ccc(NC(=O)CCC(=O)NS(C)(=O)=O)cc1`, the T/C is 94 % of control (dose: 100.0 mg/kg/injection, schedule: Q01DX001 (ip), vehicle: saline with Tween-80); 94 % of control (dose: 200.0 mg/kg/injection, schedule: Q01DX001 (ip), vehicle: saline with Tween-80); 95 % of control (dose: 400.0 mg/kg/injection, schedule: Q01DX001 (ip), vehicle: saline with Tween-80).
As to `O=C(Nc1ccccc1)Nc1ccc(OCc2ccccc2)cc1`, the T/C is 90 % of control (dose: 50.0 mg/kg/injection, schedule: Q01DX009 (ip), vehicle: saline with Tween-80); 88 % of control (dose: 100.0 mg/kg/injection, schedule: Q01DX009 (ip), vehicle: saline with Tween-80); 114 % of control (dose: 200.0 mg/kg/injection, schedule: Q01DX009 (ip), vehicle: saline with Tween-80).
For the molecule `O=C(CCCl)Nc1c(Cl)cccc1Cl`, the T/C reads like this: under setting [9], 96 % of control; under setting [10], 99 % of control; under setting [11], 96 % of control.
In the case of `CCOCC#CC(OCC)OCC`, the T/C by setting is: (dose: 60.0 mg/kg/injection, schedule: Q01DX005 (ip), vehicle: saline) 101 % of control; (dose: 120.0 mg/kg/injection, schedule: Q01DX005 (ip), vehicle: saline) 99 % of control; (dose: 240.0 mg/kg/injection, schedule: Q01DX005 (ip), vehicle: saline) 99 % of control.
For `CCNC(=O)/N=c1/sc([N+](=O)[O-])cn1CC(=O)N(C)C(=O)OCC`, the T/C is 100 % of control (dose: 25.0 mg/kg/injection, schedule: Q01DX001 (ip), vehicle: saline); 98 % of control (dose: 50.0 mg/kg/injection, schedule: Q01DX001 (ip), vehicle: saline); 100 % of control (dose: 100.0 mg/kg/injection, schedule: Q01DX001 (ip), vehicle: saline).
